From patent publication US20170050957A1, “4-AMINO-6-(HETEROCYCLIC)PICOLINATES AND 6-AMINO-2-(HETEROCYCLIC)PYRIMIDINE-4-CARBOXYLATES AND THEIR USE AS HERBICIDES” (Dow AgroSciences LLC, priority 2013, published 2017)
Read-outs that look alike come from different tables or passages of the source.

How the values were obtained:
[1] = system: Key Broadleaf Weed and Crop Species; assay: Post-emergent Test II herbicidal activity (Table 15); type: in vivo; settings: post-emergence, 336 h, 14 d; for pest or weed control at 35 g/ha: 35 g ai/ha; for pest or weed control at 70 g/ha: 70 g ai/ha; for pest or weed control at 140 g/ha: 140 g ai/ha
How it was run: (§1)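 Visual injury rating (0 = none, 100 = complete kill) taken 14 d after treatment, relative to untreated plants. Compounds in acetone/DMSO with crop oil concentrate and Triton X-155 were track-sprayed at 187 L/ha onto seedlings at the first-second true leaf stage.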

[2] = system: Key Grass and Sedge Weeds as well as Grass Crops; assay: Post-emergent Test II herbicidal activity (Table 16); type: in vivo; settings: post-emergence, 336 h, 14 days after application; for pest or weed control at 35 g/ha: 35 g ai/ha; for pest or weed control at 70 g/ha: 70 g ai/ha; for pest or weed control at 140 g/ha: 140 g ai/ha
How it was run: as §1

[3] = Abutilon theophrasti, velvetleaf (Abutilon theophrasti), read-out: Visual Growth Reduction (%) 14 Days After Application, ABUTH
[4] = Amaranthus retroflexus, redroot pigweed (Amaranthus retroflexus), read-out: Visual Growth Reduction (%) 14 Days After Application, AMARE
[5] = Brassica napus, oilseed rape, canola (Brassica napus), read-out: Visual Growth Reduction (%) 14 Days After Application, BRSNN
[6] = Chenopodium album, lambsquarters (Chenopodium album), read-out: Visual Growth Reduction (%) 14 Days After Application, CHEAL
[7] = Euphorbia heterophylla, wild poinsettia (Euphorbia heterophylla), read-out: Visual Growth Reduction (%) 14 Days After Application, EPHHL
[8] = Helianthus annuus, sunflower (Helianthus annuus), read-out: Visual Growth Reduction (%) 14 Days After Application, HELAN
[9] = Cyperus esculentus, yellow nutsedge (Cyperus esculentus), read-out: Visual Growth Reduction (%) 14 Days After Application CYPES
[10] = Oryza sativa, rice (Oryza sativa), read-out: Visual Growth Reduction (%) 14 Days After Application ORYSA
[11] = Triticum aestivum, wheat, spring (Triticum aestivum), read-out: Visual Growth Reduction (%) 14 Days After Application TRZAS
[12] = Zea mays, maize, corn (Zea mays), read-out: Visual Growth Reduction (%) 14 Days After Application ZEAMX

For `COC(=O)c1nc(-c2ccc3cn[nH]c3c2)c(F)c(N)c1Cl` [Compound 4.05], the pest or weed control at 35 g/ha [1, 3] was 0 to 29%, the pest or weed control at 70 g/ha [1, 3] was 0 to 29% and the pest or weed control at 140 g/ha [1, 3] was 45 to 59%. The pest or weed control at 35 g/ha [1, 4] was 0 to 29%, the pest or weed control at 70 g/ha [1, 4] was 95 to 100% and the pest or weed control at 140 g/ha [1, 4] was 95 to 100%. For the same compound, the pest or weed control at 35 g/ha [1, 5] was 0 to 29%, the pest or weed control at 70 g/ha [1, 5] was 0 to 29% and the pest or weed control at 140 g/ha [1, 5] was 45 to 59%. For the same compound, the pest or weed control at 35 g/ha [1, 6] was 85 to 94%, the pest or weed control at 70 g/ha [1, 6] was 85 to 94% and the pest or weed control at 140 g/ha [1, 6] was 95 to 100%. The pest or weed control at 35 g/ha [1, 7] was 60 to 74%, the pest or weed control at 70 g/ha [1, 7] was 95 to 100% and the pest or weed control at 140 g/ha [1, 7] was 95 to 100%. The pest or weed control at 35 g/ha [1, 8] was 60 to 74%, the pest or weed control at 70 g/ha [1, 8] was 60 to 74% and the pest or weed control at 140 g/ha [1, 8] was 95 to 100%. For the same compound, the pest or weed control at 35 g/ha [2, 9] was 0 to 29%, the pest or weed control at 70 g/ha [2, 9] was 0 to 29% and the pest or weed control at 140 g/ha [2, 9] was 0 to 29%. The pest or weed control at 140 g/ha ([2]; Echinochloa crus-galli, barnyardgrass (Echinochloa crus-galli), read-out: Visual Growth Reduction (%) 14 Days After Application ECHCG) was 85 to 94%, the pest or weed control at 35 g/ha [2, 10] was 0 to 29% and the pest or weed control at 70 g/ha [2, 10] was 0 to 29%. For the same compound, the pest or weed control at 140 g/ha [2, 10] was 0 to 29%, the pest or weed control at 140 g/ha ([2]; Setaria faberi, giant foxtail (Setaria faberi), read-out: Visual Growth Reduction (%) 14 Days After Application SETFA) was 95 to 100% and the pest or weed control at 35 g/ha [2, 11] was 0 to 29%. For the same compound, the pest or weed control at 70 g/ha [2, 11] was 0 to 29%, the pest or weed control at 140 g/ha [2, 11] was 0 to 29% and the pest or weed control at 35 g/ha [2, 12] was 0 to 29%. For the same compound, the pest or weed control at 70 g/ha [2, 12] was 60 to 74%, the pest or weed control at 140 g/ha [2, 12] was 60 to 74% and the melting point was 185 to 187 °C.
